Measured values taken from patent US20140023656A1, “PHARMACEUTICAL COMPOSITION FOR TREATMENT AND PREVENTION OF TH3 MARCH-RELATED DISEASES” (BioLT CO., LTD., priority 2010, published 2014).

Legend:
filaggrin (FLG) proteins = test: ELISA measurement of filaggrin (FLG) and filaggrin repair capacity; type: in vivo, human; conditions: person, vulgaris psoriasis
Text: A kit for sandwich enzyme immunoassay was used for quantitatively in vitro measuring filaggrin (FLG) proteins (gene related filaggrin) in a tissue homogenate or other body fluids.
Specifically, as for detection strength, measurement was done at a wavelength of 450 nm. Biotin-coupled polyclonal antibody specifically coupled with FLG was used, and the actual measured value of filaggrin (ng/ml frozen serum) was roughly estimated by a standard curve (FIG. 17) previously prepared with FLG standard sample.
Amongst mammal patients (human and dog etc.) having Th3 march/test animals, patients an amount of filaggrin proteins based on filaggrin (FLG) gene which is responsible gene of atopy syndrome (atopy is newly defined as atopy syndrome by the finding of filaggrin) were not detected or were detected in a small amount (deletion or mutation of filaggrin gene) were selected (Th3-FLG).
Subsequently, “zinc finger/Znf” (see Table 5 above) was administrated to the patients etc. (Th3-FLG) in which deletion etc. of filaggrin were confirmed, after which filaggrin repair activity was compared. […]
The filaggrin repair capacity (% of control) by zinc finger/Znf was calculated according to the following formula: […]

vulgaris psoriasis = test: Clinical effects in vulgaris psoriasis (Th1 disease/Th3 march); type: in vivo, human; conditions: person, oral 75 mg twice per day as polaprezinc, 61 days
Description: This example is an example of treatment of Th2 march patient from Th1 disease (psoriasis). (1) For referential example (control experiment), zinc agent (Trade name: Promac) was tried to be administrated to this patient. Since the activated TGF-β1 was as high as 9.3 ng/ml (average value of healthy subjects: 1.1 ng/ml), a novel supplement TgF was administrated to regulate TGF-β1. Thereafter, Promac was orally administrated to the adult twice per day in an amount of 75 mg per one dosage, or 1.6 mg/kg at a time after breakfast and a time before bedtime as polaprezinc. Promac was administrated for 61 days. […] (2) On the other hand, zinc finger/Znf was administrated to the patient for 74 days. This case (vulgaris psoriasis) is a disease presenting hyperkeratosis and is characterized by scale.

dog rheumatoid arthritis = test: Treatment of dog rheumatoid arthritis (plain x-ray examination, walking); type: in vivo
Text: FIG. 3 is a drawing showing the results of examining characteristic bone resorption in dog rheumatoid arthritis. Th3 march via zinc cell cytokine signal is marching through a route of cell surface BMP and TGF-β1. […] When the healing can be seen thereafter (FIG. 4), bone resorption and bone augmentation are equilibrated. However, TH3 vital reaction is enhanced to clinically induce atopic dermatitiss.
In FIG. 4, according to the finding of the plain x-ray examination, a bone resorption image of arthritis due to rheumatoid arthritis which is Th1 vital reactive disease (pretreatment) is shown. In the right figure of FIG. 4 showing the post-treatment, an improvement image of joint was seen when bone resorption and bone augmentation were balanced. […] According to the finding of post-treatment in the right figure of FIG. 4, incisura trochlearis in the elbow joint was visualized and significant improvement tendency was observed (Evaluation: While the dog before treatment hated going for a walk, the dog could go for a walk (about 5 minutes). It is noted that the standard walking period in the same kind of dog is within 30 minutes).

Row | Molecule | filaggrin (filaggrin (FLG) proteins; at the time after zinc agent (control experiment)) | FLA repair (filaggrin (FLG) proteins; oral 75 mg twice per day as polaprezinc, 61 days) | clinical effect (vulgaris psoriasis) | clinical effect (vulgaris psoriasis; listed as zinc agent) | walk the dog could go for (dog rheumatoid arthritis; dog after treatment, before treatment hated going for a walk, standard within 30 minutes) | bone resorption during the course of the treatment (dog rheumatoid arthritis; dog rheumatoid arthritis, FIG. 3) | hyperpermeability image due to invasion around the joint and inflammation of joint (dog rheumatoid arthritis; dog, Th1 arthritis, direct administration of 4MU within the joint, plain x-ray)
1 | NCCC(=O)[N-][C@@H](Cc1c[nH]cn1)C(=O)[O-].[Zn+2] [Promac, polaprezinc] | 0.9 ng/mL | could not be recognized | no clinical effect could be recognized | no effect |  |  | 
2 | IFN-γ: recombinant interferon-gamma used to treat dog rheumatoid arthritis (protein, UniProt P42161 24-166, looked up) Interferon gamma: QAMFFKEIENLKEYFNASNPDVSDGGSLFVDILKKWREESDKTIIQSQIVSFYLKLFDNFKDNQIIQRSMDTIKEDMLGKFLNSSTSKREDFLKLIQIPVNDLQVQRKAINELIKVMNDLSPRSNLRKRKRSQNLFRGRRASK |  |  |  |  | about 5 minutes | bone resorption is predominant | significantly improved
